Assay results reported in patent publication US20120238576A1, “Triazine Derivatives and their Therapeutical Applications” (CALIFORNIA CAPITAL EQUITY, LLC, priority 2009, published 2012).

biological target: c-SRC (h) (Homo sapiens, UniProt P12931); experiment: Src Kinase Assay (33P-ATP filter-binding, Cdc2 peptide substrate); assay type: biochemical; settings: compound at 10 μM; c-SRC (h) 5-10 mU, 40 minutes at room temperature
Experimental: This example illustrated Src Kinase Assays. Briefly, in a final reaction volume of 25 μL, c-SRC (h) (5-10 mU) is incubated with 8 mM MOPS pH 7.0, 0.2 mM EDTA, 250 μM KVEKIGEGTYGVVYK (Cdc2 peptide), 10 mM MgAcetate and [g-33P-ATP] (specific activity approx. 500 cpm/pmol, concentration as required). The reaction is initiated by the addition of the MgATP mix. After incubation for 40 minutes at room temperature, the reaction is stopped by the addition of 5 μL of a 3% phosphoric acid solution. 10 μL of the reaction is then spotted onto a P30 filtermat and washed three times for 5 minutes in 75 mM phosphoric acid and once in methanol prior to drying and scintillation counting.

Sequence of c-SRC (h) (P12931 whole entry): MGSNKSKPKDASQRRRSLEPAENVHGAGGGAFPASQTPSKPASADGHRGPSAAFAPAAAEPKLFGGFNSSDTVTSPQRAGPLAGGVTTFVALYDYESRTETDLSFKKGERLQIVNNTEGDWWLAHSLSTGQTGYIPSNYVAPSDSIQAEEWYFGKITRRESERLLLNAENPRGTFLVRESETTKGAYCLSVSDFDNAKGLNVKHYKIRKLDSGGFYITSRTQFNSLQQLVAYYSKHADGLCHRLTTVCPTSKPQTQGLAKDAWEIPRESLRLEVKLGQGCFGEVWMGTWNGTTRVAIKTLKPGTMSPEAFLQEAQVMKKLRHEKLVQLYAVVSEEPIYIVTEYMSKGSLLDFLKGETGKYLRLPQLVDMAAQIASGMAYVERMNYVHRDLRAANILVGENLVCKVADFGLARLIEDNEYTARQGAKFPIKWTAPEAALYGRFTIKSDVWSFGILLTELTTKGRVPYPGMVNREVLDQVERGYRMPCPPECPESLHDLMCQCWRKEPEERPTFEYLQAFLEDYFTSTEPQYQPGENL

SMILES | inhibition at 10 µM
Cc1nc(Nc2ncc(C(=O)Nc3c(C)cccc3Cl)s2)nc(N2CCN(C)CC2)n1 [Example 7] | > 90%
Cc1nc(Nc2ncc(C(=O)Nc3c(C)cccc3Cl)s2)nc(N2CCN(Cc3ccncc3)CC2)n1 [Example 10] | > 90%
Cc1nc(Nc2ncc(C(=O)Nc3c(C)cccc3Cl)s2)nc(N2CCNCC2)n1 [Example 13] | > 90%
Cc1nc(Nc2ncc(C(=O)Nc3c(C)cccc3Cl)s2)nc(N2CCN(CCC#N)CC2)n1 [Example 14] | > 90%
Cc1nc(Nc2ncc(C(=O)Nc3c(C)cccc3Cl)s2)nc(N2CCN(c3ccccc3)CC2)n1 [Example 17] | > 90%
Cc1nc(Nc2ncc(C(=O)Nc3c(C)cccc3Cl)s2)nc(N2CCN(c3cccc(C(F)(F)F)c3)CC2)n1 [Example 18] | > 90%
CCc1nc(Nc2ncc(C(=O)Nc3c(C)cccc3Cl)s2)nc(N2CCN(CCO)CC2)n1 [Example 23] | > 90%
CCc1nc(Nc2ncc(C(=O)Nc3c(C)cccc3Cl)s2)nc(N2CCN(c3ccncc3)CC2)n1 [Example 24] | > 90%
CCc1nc(Nc2ncc(C(=O)Nc3c(C)cccc3Cl)s2)nc(N2CCOCC2)n1 [Example 25] | > 90%
CCc1nc(NCCN(C)C)nc(Nc2ncc(C(=O)Nc3c(C)cccc3Cl)s2)n1 [Example 26] | > 90%
Cc1cccc(Cl)c1NC(=O)c1cnc(Nc2nc(CC(C)C)nc(N3CCN(CCO)CC3)n2)s1 [Example 34] | > 90%
Cc1nc(Nc2ncc(C(=O)Nc3c(C)cccc3Cl)o2)nc(N2CCNCC2)n1 [Example 38] | > 90%
CCc1nc(Nc2ncc(C(=O)Nc3c(C)cccc3Cl)o2)nc(N2CCN(CCO)CC2)n1 [Example 40] | > 90%
CCc1nc(NCCN(C)C)nc(Nc2ncc(C(=O)NC3CC3)s2)n1 [Example 63] | < 50%
CCc1nc(NCCN(C)C)nc(Nc2ncc(C(=O)NC(C)C)s2)n1 [Example 67] | < 50%
CCc1nc(NCCN(C)C)nc(Nc2ncc(C(=O)Nc3c(C)cccc3C)s2)n1 [Example 71] | > 90%
CCc1nc(NCCN(C)C)nc(Nc2ncc(C(=O)Nc3ccccc3)s2)n1 [Example 79] | 50 to 90%
CN1CCN(c2ncnc(Nc3ncc(CC(=O)Nc4cccc(F)c4)s3)n2)CC1 [Example 88] | < 50%
O=C(Cc1cnc(Nc2ncnc(N3CCCCC3)n2)s1)Nc1cccc(F)c1 [Example 89] | < 50%
CCc1nc(Nc2ncc(CC(=O)Nc3c(C)cccc3Cl)s2)nc(N2CCN(CCO)CC2)n1 [Example 93] | < 50%
CCc1nc(NCCN(CC)CC)nc(Nc2ncc(C(=O)Nc3c(C)cccc3Cl)s2)n1 [Example 94] | > 90%
CN1CCN(c2ncnc(Nc3cc(CC(=O)Nc4cccc(F)c4)[nH]n3)n2)CC1 [Example 104] | < 50%
CN(C)CCCOc1ncnc(Nc2cc(CC(=O)Nc3cccc(F)c3)[nH]n2)n1 [Example 105] | < 50%
Cc1cccc(Cl)c1NC(=O)Cc1cc(Nc2ncnc(OCCCN(C)C)n2)n[nH]1 [Example 107] | < 50%
CN1CCN(c2ncnc(Nc3cc(CC(=O)NCc4ccc(F)cc4)[nH]n3)n2)CC1 [Example 108] | < 50%
CN(C)CCN(C)c1ncnc(Nc2cc(CC(=O)Nc3cccc(F)c3)[nH]n2)n1 [Example 110] | < 50%
COCC(C)Nc1ncnc(Nc2cc(CC(=O)Nc3cccc(F)c3)[nH]n2)n1 (centres unmarked) [Example 111] | < 50%

The next lines start with the values.

inhibition at 10 µM | SMILES
> 90% | Cc1nc(Nc2ncc(C(=O)Nc3c(C)cccc3Cl)s2)nc(N2CCN(CCO)CC2)n1 [Example 5]
> 90% | Cc1nc(Nc2ncc(C(=O)Nc3c(C)cccc3Cl)s2)nc(N2CCC(CO)CC2)n1 [Example 11]
> 90% | Cc1nc(Nc2ncc(C(=O)Nc3c(C)cccc3Cl)s2)nc(N2CCNC(=O)C2)n1 [Example 19]
> 90% | Cc1nc(NCCCn2ccnc2)nc(Nc2ncc(C(=O)Nc3c(C)cccc3Cl)s2)n1 [Example 20]
> 90% | CCc1nc(NCCO)nc(Nc2ncc(C(=O)Nc3c(C)cccc3Cl)s2)n1 [Example 27]
> 90% | CCc1nc(NCCCN2CCOCC2)nc(Nc2ncc(C(=O)Nc3c(C)cccc3Cl)s2)n1 [Example 28]
> 90% | Cc1cccc(Cl)c1NC(=O)c1cnc(Nc2nc(-c3ccccc3)nc(N3CCN(CCO)CC3)n2)s1 [Example 31]
< 50% | CCc1nc(Nc2nnc(C(=O)Nc3c(C)cccc3Cl)o2)nc(N2CCN(CCO)CC2)n1 [Example 52]
> 90% | CCc1nc(Nc2ncc(C(=O)Nc3c(C)cccc3Cl)n2C)nc(N2CCN(C)CC2)n1 [Example 59]
> 90% | CCc1nc(NCCN(C)C)nc(Nc2ncc(C(=O)Nc3c(C)cc(C)cc3C)s2)n1 [Example 75]
< 50% | Cc1cccc(Cl)c1NC(=O)Cc1cnc(Nc2ncnc(N3CCN(C)CC3)n2)s1 [Example 92]
< 50% | Cc1cccc(Cl)c1NC(=O)Cc1cc(Nc2ncnc(N3CCN(C)CC3)n2)n[nH]1 [Example 106]
< 50% | CN(C)CCCOc1ncnc(Nc2cc(CC(=O)NCc3ccc(F)cc3)[nH]n2)n1 [Example 109]
< 50% | O=C(Cc1cc(Nc2ncnc(Nc3ccccc3)n2)n[nH]1)Nc1cccc(F)c1 [Example 113]
